This note sets out measurements from patent publication US20240158339A1, “TYRAMINE CONTAINING HYDROXYCINNAMIC ACID AMIDE DERIVATIVES AND METHODS OF USE THEREOF” (Brightseed, Inc., priority 2018, published 2024).

The target of one series is T1, HNF4α (Homo sapiens, UniProt P41235).
T1 construct: T6PNE cells (Kiselyuk, et al. (2012) Chem. Biol. 19(7):806-818; Kiselyuk, et al. (2010) J. Biomol; endogenous in cells; host or cells: T6PNE cells
T1 sequence (P41235 1-474): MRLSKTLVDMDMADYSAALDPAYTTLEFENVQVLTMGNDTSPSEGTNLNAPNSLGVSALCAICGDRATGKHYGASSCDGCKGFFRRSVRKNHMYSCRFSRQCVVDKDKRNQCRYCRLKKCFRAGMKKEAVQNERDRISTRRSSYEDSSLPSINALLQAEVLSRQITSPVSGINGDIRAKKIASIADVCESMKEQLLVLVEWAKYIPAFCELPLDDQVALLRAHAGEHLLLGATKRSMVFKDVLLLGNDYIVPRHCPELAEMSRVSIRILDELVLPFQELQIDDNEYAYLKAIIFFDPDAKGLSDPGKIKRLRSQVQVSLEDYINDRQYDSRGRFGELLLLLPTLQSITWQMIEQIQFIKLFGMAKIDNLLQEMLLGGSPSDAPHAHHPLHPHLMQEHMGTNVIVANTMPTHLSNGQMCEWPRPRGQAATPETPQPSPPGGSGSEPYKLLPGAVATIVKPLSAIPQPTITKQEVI
As to the kind of experiment: Insulin promoter activity assay (HNF4α assay) in T6PNE cells. Format: cell-based. The note with it: for HNF4α activation / bioactivity (screening result in words): HNF4α assay, screening and SAR statements. As for the experimental part:
Insulin Promoter Activity. T6PNE cells (Kiselyuk, et al. (2012) Chem. Biol. 19(7):806-818; Kiselyuk, et al. (2010) J. Biomol. Screen 15(6):663-70) are seeded at 2000 cells per well in 384-well tissue culture plates in the presence of 1 μM tamoxifen and 0.03 mM palmitate. After a 24-hour incubation, a compound of the invention is added to the cells. Forty-eight hours after compound addition, cells are fixed in 4% paraformaldehyde and stained with DAPI. Blue (DAPI) and green (human insulin promoter driving GFP) channels are imaged.
Inhibition of HNF4α GFP Expression. Using the insulin promoter assay described herein, activity of HNF4α was assessed in the presence of BI-6015 (0, 2.5, 5 μM), a known antagonist of HNF4α (Kiselyuk, et al. (2012) Chem. Biol. 19(7):806-818), in combination with N-trans-caffeoyltyramine (0, 5, 10, 20 μM).
Given the role of HNF4α in maintaining a health metabolism in humans, test compounds were screened for activity as HNF4α agonists (either direct or indirect effects). Using a known insulin promoter-reporter assay Kiselyuk and colleagues (2010. J. Biomol. Screen 15(6):663-70) screened a library of compounds for activity to promote insulin activation. […] The OTC promoter is known to be responsive to HNF4α in transient transfection assays (Inoue, et al. (2002) J. Biol. Chem. 277:25257-65).
Plant compounds in the top 10th percentile of similarity to the 18 target structures were selected and compounds predicted to be potential agonists of HNF4α activity given their chemical structural features were screened in the HNF4α assay.

The subject of another series is HNF4α mRNA. Briefly: HNF4α mRNA levels by quantitative PCR. To be noted: FIG. 3. Format: cell-based. The protocol:
(§1) Expression of Insulin and HNF4α. RNA was purified using a RNEASY® chromatographic separation and isolation kits (Qiagen), and converted to cDNA using the gScript™ cDNA SuperMix (Quanta Biosciences). Q-PCR was conducted with cDNA corresponding to 2 μg of RNA using an Opticon Real-Time System (MJ Research) and QPCR SuperMix (BioPioneer). See All mRNA values were normalized to 18S rRNA values and are expressed as fold changes over vehicle-treated control.

Another series deals with insulin mRNA. Briefly: Insulin mRNA levels by quantitative PCR. The series is classed as cell-based. To be noted: FIG. 2. The protocol:
as §1

For another series, the system named is HepG2 cells. As to the kind of experiment: Lipid clearance (steatosis assay) in HepG2 cells. The series is classed as cell-based. To be noted: HepG2 liver cells, 20 μM. The protocol:
(§2) Lipid Clearance in HepG2 and T6PNE Cells (Steatosis Assay). The steatosis assay was carried out as described (Kiselyuk, et al. (2012) Chem. Biol. 19(7):806-818) with the exception of the drug concentration, which was 20 μM for N-trans-caffeoyltyramine with 0.25 mM palmitate in HepG2 cell lines, and 10 μM of either N-trans-caffeoyltyramine, N-trans-caffeoyltyramine, or p-coumaroyltyramine, with 0.25 mM palmitate in T6PNE cell lines. Steatosis was assessed using the Oil Red O Method for Fats kits (Poly Scientific; Warrington, PA), per manufacturer's guidelines. Briefly, frozen tissue slides or fixed cells were incubated in neat propylene glycol for 2 minutes and Oil Red O solution for […] for slides or 1 hour for fixed cells, differentiated in 85% propylene glycol solution for 1 minute, washed twice with distilled water and stained in Hematoxylin of 10 seconds. Slides were mounted with glycerin jelly mounting medium.

The test system of a further series is T6PNE cells. Briefly: Lipid clearance (steatosis assay) in T6PNE cells. The series is classed as cell-based. The note with it: for fat accumulation: T6PNE cells, 0.25 mM palmitate, 10 μM compound. As for the experimental part:
T6PNE cells were pretreated for 1 day with 0.06 mM, 0.12 mM or 0.25 mM palmitate at which time 15 μM N-trans-caffeoyltyramine or control (DMSO) was added. Cells were harvested on day 3, 6 and 8 and subjected to staining with Nile Red and […]. Results are expressed as fold change in Nile Red staining: +palmitate/10% FBS medium (no palmitate).
as §2

Another series in a line: pH stability assessment. Format: physicochemical. The note with it: pH 2, 7.4, 8.5 and 10, 37° C., 0.5 vs 72 hours. The protocol:
pH Stability Assessment. Individual stock solutions were prepared in DMSO at concentrations of 10 mg/mL. Four different buffer solution s were prepared to achieve solutions with a pH of 2, 7.4, 8.5 and 10. For each pH assay, 5 μL of stock solution was added to 245 μL of buffered solution to a 2 mL tube, vortexed and incubated in a 37° C. water bath. At each timepoint, 50 μL aliquots were taken, neutralized and analyzed via HPLC analysis using a DAD detector at 280 nm. The fold change of the peak area at 280 nm was analyzed for the initial and final timepoint, 0.5 and 72 hours, respectively.

The nature of series [1]: Bioavailability determination in male C57BL/6 mice. To be noted: IV 2 mg/kg vs oral or IP 30 mg/kg, route not stated in Table 3.
Another series deals with E47MER. As to the kind of experiment: Counter-screen for estrogenic activity (E47MER luciferase reporter in HeLa cells). The series is classed as cell-based, human. The note with it: with 1 μM or without tamoxifen, FIG. 5. As for the experimental part: Counter-Screen for Estrogenic Activity. Estrogenic activity was monitored by co-transfection of a reporter plasmid containing a multimerized E-box 5′ of a minimal promoter fused to the Firefly luciferase gene with wild-type E47 or E47MER (Kiselyuk, et al. (2010) J. Biomol. Screen 15(6):663-70). HeLa cells were transfected using polyethylenimine, 0.2 μg 4RTK-Luc plasmid and either 0.3 μg of human E47, E47MER or pMSCVhph vector in 50 μl of serum-free Dulbecco's modification of Eagle medium per well. Transfections included Renilla luciferase (pRL-TK) plasmid as a control for transfection efficacy. Transfection conditions were as described in the PPRE-Luc reporter assay of Kiselyuk, et al. ((2010) J. Biomol. Screen 15(6):663-70). Sixteen hours after transfection, culture media were changed and maintained for 48 hours with tamoxifen and/or compound or vehicle (DMSO). Cells were then lysed and assayed for luciferase activity using the Promega DUAL-LUCIFERASE® reporter assay kit (Promega Corp., Madison, WI), and luminescence was measured using the Veritas™ Microplate Luminometer (Turner Biosystems, Sunnyvale, CA). Data were normalized to Renilla luciferase (pRL-TK) and expressed as fold-change over vehicle alone.
For orientation: The purpose of a counterscreen is to sort out artefacts and off-target activity.

“Also recorded” adds a separate entry of the source.

`O=C(C=CCCc1ccccc1)CCc1ccccc1` [1,7-diphenylhept-4-en-3-one]: the “HNF4α activation / bioactivity (screening result in words)” value (“HNF4α activation / bioactivity” for short) on HNF4α was “complete loss of bioactivity”.

With `Cc1ccc([N+](=O)[O-])cc1S(=O)(=O)n1c(C)nc2ccccc21` [BI-6015, reference compound], the “effect on N-trans-caffeoyltyramine-mediated increases in insulin expression” value at HNF4α (BI-6015 0, 2.5, 5 μM with N-trans-caffeoyltyramine 0, 5, 10, 20 μM, FIG. 4) is reported as “inhibited”.

For `O=C(C=Cc1ccccc1)NCCc1ccccc1` [N-2-phenylethylcinnamide], the “HNF4α activation / bioactivity” value on HNF4α was “complete loss of bioactivity”.

Regarding `O=C(/C=C/c1ccc(O)cc1)NCCc1ccc(O)c(O)c1` [N-coumaroyldopamine], on HNF4α, the “HNF4α activation / bioactivity” value is “complete loss of HNF4α activation”. Also, the HNF4α gene expression entry in the series with HNF4α mRNA was “inactive”. Further, in the series on insulin mRNA, the insulin gene expression result was “inactive”.

Regarding `COc1cc(/C=C/C(=O)NCC(O)c2ccc(O)cc2)ccc1O` (stereo not drawn) [N-trans-feruloyloctopamine], at HNF4α, the “HNF4α activation / bioactivity” value is listed as “complete loss of HNF4α activation”. Moreover, the HNF4α gene expression entry in the series on HNF4α mRNA was “inactive”. For the same compound, the insulin gene expression result in the series with insulin mRNA is “inactive”.

What is called bioavailability is the share of a dose that reaches the circulation, judged against a reference dose that is usually intravenous. Consider `COc1cc(/C=C/C(=O)NCCc2ccc(O)cc2)ccc1O` [N-trans-feruloyltyramine], for which the “HNF4α activation / bioactivity” value at HNF4α was “able to act as HNF4α modulators; also recorded: reduces but does not eradicate bioactivity”. The “clearing of fats, Oil Red O staining” value with HepG2 cells is “capable of clearing harmful fats from the liver”. The accumulation of fats result in the series on HepG2 cells (0.25 mM palmitate) is “inhibited accumulation of fats”. Besides, the “lipid accumulation when palmitate was added prior to compound” value in the series on T6PNE cells (T6PNE cells pretreated 1 day with 0.06-0.25 mM palmitate, 15 μM compound, Nile Red, FIG. 6) is on record as “can reverse fat accumulation”. Further, in the series on T6PNE cells, the fat accumulation result is given as “inhibition of fat accumulation”. Moreover, the “pH Stability” value in “pH stability assessment” was “Stable”. Moreover, the bioavailability in series [1] is about 7%. Besides, the estrogenic activity result with E47MER was “did not exhibit estrogenic activity”. In the series on HNF4α mRNA, the HNF4α gene expression result is recorded as “upregulated”. Moreover, the insulin gene expression result in the series on insulin mRNA is given as “upregulated”.

Take `COc1cc(/C=C\C(=O)NCCc2ccc(O)cc2)ccc1O` [cis-feruloyltyramine]: on HNF4α, the “HNF4α activation / bioactivity” value is given as “complete loss of HNF4α activation”. The HNF4α gene expression result with HNF4α mRNA is “inactive”. Moreover, in the series with insulin mRNA, the insulin gene expression entry is “inactive”.

As to `O=C(/C=C/c1ccc(O)cc1)NCC(O)c1ccc(O)cc1` (centres unmarked) [p-coumaroyloctopamine], the HNF4α gene expression entry in the series with HNF4α mRNA was “inactive”. In addition, in the series with insulin mRNA, the insulin gene expression result was “inactive”.

Turning to `O=C(/C=C/c1ccc(O)cc1)NCCc1ccc(O)cc1` [p-coumaroyltyramine], the “HNF4α activation / bioactivity” value is recorded as “able to act as HNF4α modulators” on HNF4α and “additional reduction but not eradication of bioactivity” on HNF4α (listed as N-trans-coumaroyltyramine). In addition, the fat accumulation entry in the series with T6PNE cells is given as “inhibition of fat accumulation”. The HNF4α gene expression result in the series with HNF4α mRNA is listed as “upregulated”. Also, the insulin gene expression result with insulin mRNA is reported as “upregulated”.
